Measured values as given in US20260035365A1, “1H-PYRROLO[3,2-B]PYRIDINE DERIVATIVES AS IRREVERSIBLE INHIBITORS OF MUTANT EGFR FOR THE TREATMENT OF CANCER” (Bayer Aktiengesellschaft, priority 2022, published 2026).

How the values were obtained:
[1] = target: mutEGFR (D770_N771insSVD) (Homo sapiens, UniProt P00533, INS767SVD); experiment: Exon20-mutant-EGFR (D770_N771insSVD) TR-FRET kinase assay; format: biochemical; details: 2 mM ATP, 15 min preincubation
Description: Inhibitory activity of compounds of the present invention against an Epidermal Growth Factor Receptor (EGFR) with an insertion of the amino acids sequence SVD between D770 and N771 (SEQ ID No. 5) was quantified employing the TR-FRET based kinase activity assay as described in the following paragraphs.
A recombinant fusion protein of N-terminal Glutathion-S-Transferase (GST) and a fragment of human EGFR variant (amino acids R669 to A1210 with insertion of the amino acids sequence SVD between D770 and N771 (SEQ ID No. 5) (“EGFR ins SVD”), expressed in Sf9 insect cells and purified via affinity chromatography using Glutathion Sepharose as described above, was used as a kinase. As substrate for the kinase reaction the biotinylated peptide biotin-Ahx-AEEEEYFELVAKKK (C-terminus in amide form) (SEQ ID No. 6) was used which can be purchased e.g. form the company Biosynthan GmbH (Berlin-Buch, Germany).
For the assay 50 nl of a 100-fold concentrated solution of the test compound in DMSO was pipetted into either a black low volume 384 well microtiter plate or a black 1536 well microtiter plate (both Greiner Bio-One, Frickenhausen, Germany), 2 μl of a solution of EGFR in aqueous assay buffer [50 mM Hepes pH 7.0, 10 mM MgCl2, 1 mM dithiothreitol, 0.5 mM EGTA, 0.3 mM activated sodium ortho-vanadate, 0.005% (w/v) bovine serum albumin, 0.005% (v/v) Tween-20] were added and the mixture was incubated for 15 min at 22° C. to allow pre binding of the test compounds to the enzyme before the start of the kinase reaction. […] The concentration of EGFR was adjusted depending of the activity of the enzyme lot and was chosen appropriate to have the assay in the linear range, typical concentration was 15 pg/μl. The reaction was stopped by the addition of 3 μl of a solution of HTRF detection reagents (83.3 nM streptavidine-XL665 [Cisbio Bioassays, Codolet, France] and 1.67 nM PT66-Tb-Cryptate, a terbium-cryptate labelled anti-phospho-tyrosine antibody from Cisbio Bioassays [instead of the PT66 Tb cryptate PT66 Eu Chelate from Perkin Elmer can also be used]) in an aqueous EDTA-solution (133.3 mM EDTA, 0.2% (w/v) bovine serum albumin in 50 mM HEPES pH 7.5).
The resulting mixture was incubated 1 h at 22° C. to allow the binding of the biotinylated phosphorylated peptide to the streptavidine-XL665 and the PT66-Tb-Cryptate. Subsequently, the amount of phosphorylated substrate was evaluated by measurement of the resonance energy transfer from the PT66-Tb-Cryptate to the streptavidine-XL665. Therefore, the fluorescence emissions at 620 nm and 665 nm after excitation at 337 nm were measured in a HTRF reader, e.g. a Pherastar (BMG Labtechnologies, Offenburg, Germany) or a Viewlux (Perkin-Elmer). The ratio of the emissions at 665 nm and at […] was taken as the measure for the amount of phosphorylated substrate. The data were normalised (enzyme reaction without inhibitor=0% inhibition, all other assay components but no enzyme=100% inhibition).

[2] = target: mutEGFR (D770_N771insNPG, T790); experiment: mutEGFR (D770_N771insNPG, T790) kinase assay; format: biochemical, human
BA/F3 (insSVD) cells = experiment: Ba/F3 cell survival assay (Cell Titer-Glo), EGFR-insSVD; format: cell-based; details: without IL-3, with EGF
Protocol: 293T cells from ATCC were transfected with pBABEpuro expression constructs for WT EGFR or EGFR-insSVD, or EGFR-insSVD T790M, and pCL-Eco packaging vector using Fugene-6 transfection reagent from Promega. Plates were incubated at 37° C. for 48 h. Retrovirus was harvested by filtering the media supernatant through a 0.45 μm filter.
Ba/F3 cells purchased from DSMZ were grown in RPMI+10% FBS+10 ng/mL IL-3 and infected with filtered retroviral supernatant at a 1:2 dilution. Polybrene was added to a concentration of 8 μg/mL, plates were spun for 90 min, and incubated for 16 h at 37° C. 2 μg/mL puromycin was added to the infected cells 24 h after infection and cells were continually grown in the presence of puromycin and 10 ng/mL IL-3. Following stably expressing Ba/F3 cell lines were generated: Ba/F3-EGFR-WT, Ba/F3-EGFR-insSVD, Ba/F3-EGFR-insSVD T790M, (Ba/F3-vector-control).
For cell survival assays, Ba/F3 cells were grown to a density of 1-2 million cells per mL, spun down and resuspended in media without IL-3, and replated at a concentration of 200,000-500,000 cells per mL. The cells ectopically expressing WT EGFR, EGFR-insSVD, or EGFR-insSVD T790M were plated with 10 ng/mL Millipore Culture grade EGF. The cells ectopically expressing pBABEpuro empty vector were plated with 10 ng/mL IL-3.
2 days later, cells were plated in 50 μL in a 384 well plate at a concentration of 4000 cells per well for cells assayed in the absence of IL-3 and 2000 cells per well for cells assayed in the presence of IL-3. 100 nL of compound was added to each well using a 100 nL pin head, and plates were incubated at 37° C. for 48 h.
Cell viability was measured by adding 20 μL of Cell Titer-Glo Luminescent Cell Viability Reagent diluted 1:3 in PBS. Plates were sealed with Perkin Elmer Top-Seal, inverted several times to mix, and immediately centrifuged at 1000 rpm for 2 min. Plates were incubated in low light conditions for 8-10 min and luminescence was measured.

mutEGFR (D770_N771insSVD), sequence (P00533 with tags, fused parts or gaps INS767SVD limits assumed): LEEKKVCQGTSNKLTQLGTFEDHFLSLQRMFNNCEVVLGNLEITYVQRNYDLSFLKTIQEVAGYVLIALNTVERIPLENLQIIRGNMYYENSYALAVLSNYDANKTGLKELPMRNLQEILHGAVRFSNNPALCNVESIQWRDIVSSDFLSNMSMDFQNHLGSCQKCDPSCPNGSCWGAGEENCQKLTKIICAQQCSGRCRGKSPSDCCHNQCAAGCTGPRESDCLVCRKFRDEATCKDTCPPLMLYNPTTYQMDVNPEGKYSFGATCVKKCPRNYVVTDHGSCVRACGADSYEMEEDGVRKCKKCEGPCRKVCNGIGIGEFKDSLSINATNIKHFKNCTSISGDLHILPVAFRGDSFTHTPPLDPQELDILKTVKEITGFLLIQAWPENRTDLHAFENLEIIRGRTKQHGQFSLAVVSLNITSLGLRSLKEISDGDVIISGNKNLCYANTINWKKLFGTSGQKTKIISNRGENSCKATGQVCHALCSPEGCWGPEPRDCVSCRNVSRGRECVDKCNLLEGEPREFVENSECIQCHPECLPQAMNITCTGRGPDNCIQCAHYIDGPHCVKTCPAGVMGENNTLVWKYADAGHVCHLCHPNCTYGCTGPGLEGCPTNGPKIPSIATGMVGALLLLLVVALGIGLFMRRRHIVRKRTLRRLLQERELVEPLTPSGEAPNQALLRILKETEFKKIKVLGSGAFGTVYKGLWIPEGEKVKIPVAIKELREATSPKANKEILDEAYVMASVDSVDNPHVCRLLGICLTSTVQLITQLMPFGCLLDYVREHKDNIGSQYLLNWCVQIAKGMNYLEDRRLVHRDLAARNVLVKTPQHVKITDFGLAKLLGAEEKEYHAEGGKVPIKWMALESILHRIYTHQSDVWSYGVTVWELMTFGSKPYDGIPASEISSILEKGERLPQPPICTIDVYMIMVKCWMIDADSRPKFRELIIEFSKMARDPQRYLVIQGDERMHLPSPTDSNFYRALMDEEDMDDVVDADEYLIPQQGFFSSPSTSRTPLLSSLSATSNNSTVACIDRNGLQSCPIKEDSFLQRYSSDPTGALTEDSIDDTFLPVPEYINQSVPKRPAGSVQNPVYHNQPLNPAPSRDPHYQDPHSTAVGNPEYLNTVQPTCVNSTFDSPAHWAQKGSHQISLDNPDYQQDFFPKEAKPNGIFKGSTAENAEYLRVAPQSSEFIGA
mutEGFR (D770_N771insNPG, T790), sequence (P00533 with tags, fused parts or gaps INS770NPG limits assumed): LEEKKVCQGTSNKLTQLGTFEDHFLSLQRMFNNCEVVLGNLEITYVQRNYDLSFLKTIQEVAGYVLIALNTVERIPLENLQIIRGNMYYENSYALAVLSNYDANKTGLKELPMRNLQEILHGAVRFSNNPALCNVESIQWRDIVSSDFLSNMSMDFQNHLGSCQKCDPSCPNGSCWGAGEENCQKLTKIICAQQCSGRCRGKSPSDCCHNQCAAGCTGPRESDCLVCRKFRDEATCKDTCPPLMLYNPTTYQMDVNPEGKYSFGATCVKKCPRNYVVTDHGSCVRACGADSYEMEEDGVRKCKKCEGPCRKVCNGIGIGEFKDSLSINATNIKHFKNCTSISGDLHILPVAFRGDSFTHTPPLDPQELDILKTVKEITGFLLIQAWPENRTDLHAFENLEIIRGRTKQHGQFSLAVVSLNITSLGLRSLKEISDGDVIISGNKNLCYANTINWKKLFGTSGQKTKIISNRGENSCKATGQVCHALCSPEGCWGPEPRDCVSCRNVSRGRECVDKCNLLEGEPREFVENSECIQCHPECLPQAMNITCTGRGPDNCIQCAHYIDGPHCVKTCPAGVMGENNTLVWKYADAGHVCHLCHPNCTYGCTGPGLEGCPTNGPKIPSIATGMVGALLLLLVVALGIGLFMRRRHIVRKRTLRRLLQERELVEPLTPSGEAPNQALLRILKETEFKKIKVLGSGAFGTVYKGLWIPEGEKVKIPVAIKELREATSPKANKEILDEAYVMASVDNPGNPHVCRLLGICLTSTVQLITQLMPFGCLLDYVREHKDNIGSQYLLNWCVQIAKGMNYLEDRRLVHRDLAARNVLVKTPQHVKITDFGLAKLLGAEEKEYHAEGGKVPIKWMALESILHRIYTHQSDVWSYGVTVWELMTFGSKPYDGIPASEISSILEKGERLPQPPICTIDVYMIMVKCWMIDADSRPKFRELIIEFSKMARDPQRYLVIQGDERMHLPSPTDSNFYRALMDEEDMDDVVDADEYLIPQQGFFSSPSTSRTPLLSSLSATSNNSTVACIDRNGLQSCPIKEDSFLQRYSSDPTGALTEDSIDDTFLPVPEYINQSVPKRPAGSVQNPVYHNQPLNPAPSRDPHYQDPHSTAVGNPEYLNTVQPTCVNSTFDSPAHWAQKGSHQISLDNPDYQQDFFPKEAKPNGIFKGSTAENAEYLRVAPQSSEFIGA

For `C=CC(=O)N(C)CCOc1cnccc1-c1[nH]c2cccnc2c1-c1cc(OC)ccc1F` [Example 56, N-[2-({4-[3-(2-fluoro-5-methoxyphenyl)-1H-pyrrolo[3,2-b]pyridin-2-yl]pyridin-3-yl}oxy)ethyl]-N-methylprop-2-enamide], the IC50 [1] was 0.152 µM, the IC50 [2] was 0.395 µM and the IC50 (BA/F3 (insSVD) cells; Mus musculus, BaF3, 48 h) was 4.18 µM.

`C=CC(=O)N1C[C@@H](N(C)CCN(C)C)C[C@H]1COc1cnccc1-c1[nH]c2cccnc2c1-c1ccccc1` (single isomer, unassigned) [Example 132] gave an IC50 [1] of 0.00932 µM, an IC50 [2] of 0.0275 µM and an IC50 (BA/F3 (insSVD) cells; 48 h) of 0.184 µM.

`CN(C)C/C=C/C(=O)N1CCOCC1COc1cnccc1-c1[nH]c2cccnc2c1-c1cc(Cl)ccc1F` (centres unmarked) [Example 152, (2E)-1-{3-[({4-[3-(5-chloro-2-fluorophenyl)-1H-pyrrolo[3,2-b]pyridin-2-yl]pyridin-3-yl}oxy)methyl]morpholin-4-yl}-4-(dimethylamino)but-2-en-1-one] gave an IC50 [1] of 0.164 µM, an IC50 [2] of 0.353 µM and an IC50 (BA/F3 (insSVD) cells; Mus musculus, BaF3, 48 h) of 1.88 µM.

`C#CC(=O)N1CCC(Oc2cnccc2-c2[nH]c3cccnc3c2-c2cccc(C(F)(F)F)c2)C1` (racemic) [Example 123, 1-{(3RS)-3-[(4-{3-[3-(trifluoromethyl)phenyl]-1H-pyrrolo[3,2-b]pyridin-2-yl}pyridin-3-yl)oxy]pyrrolidin-1-yl}prop-2-yn-1-one] was tested, and the IC50 [1] was 0.173 µM, the IC50 [2] was 0.701 µM and the IC50 (BA/F3 (insSVD) cells; Mus musculus, BaF3, 48 h) was 0.832 µM.

Compound `C=CC(=O)N(C)CCOc1cnccc1-c1[nH]c2cccnc2c1-c1cccc(C(F)(F)F)c1` [Example 49, N-methyl-N-{2-[(4-{3-[3-(trifluoromethyl)phenyl]-1H-pyrrolo[3,2-b]pyridin-2-yl}pyridin-3-yl)oxy]ethyl}prop-2-enamide] has an IC50 [1] of 0.0574 µM, an IC50 [2] of 0.151 µM and an IC50 (BA/F3 (insSVD) cells; Mus musculus, BaF3, 48 h) of 1.93 µM.

Work on `C=CS(=O)(=O)N(C)CCOc1cnccc1-c1[nH]c2cccnc2c1-c1cc(Cl)cc(Cl)c1` [Example 75, N-[2-({4-[3-(3,5-dichlorophenyl)-1H-pyrrolo[3,2-b]pyridin-2-yl]pyridin-3-yl}oxy)ethyl]-N-methylethenesulfonamide] yielded an IC50 [1] of 0.045 µM, an IC50 [2] of 0.0261 µM and an IC50 (BA/F3 (insSVD) cells; Mus musculus, BaF3, 48 h) of 2.02 µM.

In the case of `C#CC(=O)N1CC[C@@H](Oc2cnccc2-c2[nH]c3cccnc3c2-c2cc(Cl)ccc2F)C1` [Example 128, 1-[(3R)-3-({4-[3-(5-chloro-2-fluorophenyl)-1H-pyrrolo[3,2-b]pyridin-2-yl]pyridin-3-yl}oxy)pyrrolidin-1-yl]prop-2-yn-1-one], the IC50 [1] is reported as 0.063 µM, the IC50 [2] is reported as 0.208 µM and the IC50 (BA/F3 (insSVD) cells; Mus musculus, BaF3, 48 h) is reported as 0.765 µM.

With `C=CC(=O)N1CCC[C@H]1COc1cnccc1-c1[nH]c2cccnc2c1-c1ccc2cc[nH]c2c1` [Example 84, 1-{(2S)-2-[({4-[3-(1H-indol-6-yl)-1H-pyrrolo[3,2-b]pyridin-2-yl]pyridin-3-yl}oxy)methyl]pyrrolidin-1-yl}prop-2-en-1-one] the IC50 [1] was 0.0325 µM, the IC50 [2] was 0.154 µM and the IC50 (BA/F3 (insSVD) cells; Mus musculus, BaF3, 48 h) was 3.56 µM.

For `C=CC(=O)N1CCC[C@H]1COc1cnccc1-c1[nH]c2cccnc2c1-c1ccc2cccnc2c1` [Example 79, 1-{(2S)-2-[({4-[3-(quinolin-7-yl)-1H-pyrrolo[3,2-b]pyridin-2-yl]pyridin-3-yl}oxy)methyl]pyrrolidin-1-yl}prop-2-en-1-one], the IC50 [1] was 0.00441 µM, the IC50 [2] was 0.00938 µM and the IC50 (BA/F3 (insSVD) cells; Mus musculus, BaF3, 48 h) was 0.367 µM.

In the case of `C#CC(=O)N1CCC[C@H]1COc1cnccc1-c1[nH]c2cccnc2c1-c1ccccc1` [Example 93, 1-[(2S)-2-({[4-(3-phenyl-1H-pyrrolo[3,2-b]pyridin-2-yl)pyridin-3-yl]oxy}methyl)pyrrolidin-1-yl]prop-2-yn-1-one], the IC50 [1] is reported as 0.00102 µM, the IC50 [2] is reported as 0.00314 µM and the IC50 (BA/F3 (insSVD) cells; Mus musculus, BaF3, 48 h) is reported as 0.0553 µM.

Work on `C=CC(=O)N1CCCC[C@H]1COc1cnccc1-c1[nH]c2cccnc2c1-c1ccccc1` [Example 130, 1-[(2S)-2-({[4-(3-phenyl-1H-pyrrolo[3,2-b]pyridin-2-yl)pyridin-3-yl]oxy}methyl)piperidin-1-yl]prop-2-en-1-one] yielded an IC50 [1] of 0.337 µM and an IC50 (BA/F3 (insSVD) cells; Mus musculus, BaF3, 48 h) of 1.62 µM.
